From patent US10196357B2, “Biaryl compositions and methods for modulating a kinase cascade” (Athenex, Inc., priority 2007, dated 2019) come the findings set out here.

“Also recorded” adds a separate entry of the source. Bounds are passed on as bounds.

Series [1] relates to CCRF-HSB-2 (Adult lymphoblastic leukemia). The series is described as follows: growth inhibition, CCRF-HSB-2. It is filed as cell-based, Human.
For series [2], the system named is MOLT-4 (Adult lymphoblastic leukemia). The series is described as follows: growth inhibition, MOLT-4. Format: cell-based, Human. Conditions: Homo sapiens.
Another series relates to H226. Put plainly: MTT growth inhibition, Dasatinib-resistant H226. Format: cell-based, human. To be noted: Homo sapiens, NCI-H226, H226, 8.0×10^3 cells/well, 1.5% FBS, 78 Hr.
Another series deals with Ba/F3 (IL-3 induced). The series is described as follows: MTT growth inhibition, Ba/F3 + IL-3. It is filed as cell-based. To be noted: 96 hrs.
Another series deals with WRL-68. The series is described as follows: MTT growth inhibition, WRL-68. Format: cell-based, human. Conditions: Homo sapiens, WRL68, 78 h. The method, then: (§1) Samples of the test compounds were formulated in 100% DMSO to obtain 20 mM stock solutions; stored @ 4° C. The IC50s and IC80s were determined as described below. Huh7, WRL-68, PLC/PRF/5, Hep 3B, and Hep G2 human cancer lines were routinely cultured and maintained in a basal medium containing 2% FBS @ 37° C., 5% CO2. […] Vehicle control contained cells, no sample. Medium control contained cells, no sample, 0.03% DMSO (highest DMSO concentration present in samples). […] On day 3, 10 μL MTT (5 mg/mL) were added to each well. Cells were incubated in the presence of MTT for 4 hours @ 37° C., 5% CO2. […] Cells were then incubated overnight @ 37°, 5% CO2. OD570 measurements were taken using BioTek Synergy HT multiplatform microplate reader. Growth inhibition curves IC50s and IC80s were determined using GraphPad Prism 5 statistical software.

In series [3] the test system is HT29 (human colon cancer). To be noted: mouse, in vivo.
Another series relates to PLC/PRF/5. Put plainly: MTT growth inhibition, PLC/PRF/5. To be noted: Homo sapiens, PLC-PRF-5, 78 h. Format: cell-based, human. The protocol:
as §1

In the next series the test system is Hep 3B. The series is described as follows: MTT growth inhibition, Hep 3B. Format: cell-based, human. To be noted: Homo sapiens, Hep3B, 78 h. The protocol:
as §1

A further series relates to K562 (CML). The series is described as follows: growth inhibition (BrdU), K562. It is filed as cell-based, Human. To be noted: Homo sapiens; K562, BrdU, T=72. From the text:
Growth Inhibition. […] T1 values≤T0 values were designated as T, cytotoxicity.

Series [4] relates to PC3-MM2 prostate cancer cells. The series is described as follows: orthotopic prostate model for in vivo metastases. To be noted: 15 mg/kg/day oral gavage. Also noted: species or system Nu/Nu mice. The method, then:
Nu/Nu mice (8-12 weeks of age) were injected with PC3-MM2 prostate cancer cells into the prostate as described previously in Pettaway et al., Clin Cancer Res 1996, 2:1627-1636, hereby incorporated herein by reference in its entirety. […] All mice were sacrificed by cervical dislocation on about day 42. Tumor volume (measured by caliper), weight, and incidence of regional (celiac or para-aortal) lymph node metastases were recorded.

Another series has as its system HuH7. The series is described as follows: MTT growth inhibition, HuH7. Format: cell-based, human. Conditions: Homo sapiens, Huh-7, 78 h. The method, then: Samples of the test compounds were formulated in 100% DMSO to obtain 20 mM stock solutions; stored @ 4° C. The IC50s and IC80s were determined as described below. Huh7, WRL-68, PLC/PRF/5, Hep 3B, and Hep G2 human cancer lines were routinely cultured and maintained in a basal medium containing 2% FBS @ 37° C., 5% CO2. […] The assay medium was basal medium/1.5% FBS. Cells were cultured overnight in 96-well plates at 37° C., 5% CO2 prior to KX2-391. MSA and Dasatinib addition. […] 10 μL of 20× dilutions were added to the appropriate wells (n=3) containing 190 μL cancer cell line; 6561 nM to 0.012 nM range of final concentrations. Vehicle control contained cells, no sample. Medium control contained cells, no sample, 0.03% DMSO (highest DMSO concentration present in samples). […] On day 3, 10 μL MTT (5 mg/mL) were added to each well. Cells were incubated in the presence of MTT for 4 hours @ 37° C., 5% CO2. […] Cells were then incubated overnight @ 37°, 5% CO2. OD570 measurements were taken using BioTek Synergy HT multiplatform microplate reader. Growth inhibition curves IC50s and IC80s were determined using GraphPad Prism 5 statistical software.

Another series relates to c-Src 3T3 cells. Put plainly: BrdU cell growth inhibition, c-Src 3T3. Format: cell-based, mouse. To be noted: Mus musculus. In short, it runs like this:
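c-Src 3T3 cells on poly-D-lysine plates in DMEM with 2% FBS, L-glutamine, pyruvate and 10 mM HEPES. Compounds came from 20 mM DMSO stocks diluted in DMEM/10% FBS. Proliferation was read by colorimetric BrdU-incorporation ELISA, and GI50 was extrapolated from growth relative to time-zero and untreated controls.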

Series [5] is described as follows: noise-induced hearing loss. It is filed as in vivo, Chinchillas. Conditions: chinchilla ears treated on round window, 4 kHz band noise 105 dB SPL 4 h, days 1, 7, 21; relative to control ears. The method, then: Chinchillas (N=6) were used in studies of noise-induced hearing loss. The animals' hearing sensitivity was measured using standard electrophysical techniques before the experimental manipulation. […] Animals were anesthetized, the auditory bullae were opened, and the left and right cochleas were visualized. The round window leading to the scala tympani of the cochlea was used as the access point for drug application. Animals were treated with KX1-004, KX1-141, KX1-329 or KX2-328 (a non-ATP competitive inhibitor from AstraZeneca, KX2-238), emulsified in DMSO, in 1000 mM of saline solution, which was placed on the round window of one ear. KX1-004:
A control solution of 3 mM DMSO in 1000 mM of saline solution was placed on the round window of the other ear. The solution was allowed to set on the round window for 30 minutes, then the auditory bullae were closed. […] Following the noise exposure, the animals' hearing was tested at day 1, day 7, and day 21 to determine evoked potential threshold shifts. Permanent threshold shift was assessed at day 21.
FIGS. 10-12 show the average threshold shifts for animals treated with KX1-004, KX1-141, KX1-329 or KX2-328.

Series [6] has as its system osteoclast precursors derived from spleen cells. Put plainly: osteoclast formation from spleen cells. Format: cell-based. Conditions: 5 days, RANKL and M-CSF, vs untreated control. The protocol:
To determine the effect of the compounds on osteoclast formation, the compounds were added to osteoclast precursors derived from spleen cells. For the generation of spleen-derived osteoclasts, spleen cells comprising osteoclast precursors were treated with Rapamycin, KX1-141, KX2-328 (AstraZeneca compound), or KX1-329 for 5 days in the presence of receptor activator of nuclear factor-xB ligand (RANKL) and macrophage colony-stimulating factor (M-CSF). In in vitro murine or human osteoclast models, soluble RANKL enables osteoclast precursors to differentiate in the presence of M-CSF (Quinn, et al.; 1998, Endocrinology, 139, 4424-4427; Jimi, et al.; 1999, J. Immunol., 163, 434-442). The untreated control cells were incubated in the presence of RANKL and M-CSF alone. Rapamycin was used as a positive control for the inhibition of osteoclast formation.
For generating spleen-derived osteoclasts, spleen cells were treated as described above. […] Cells were then stained with the osteoclast marker, tartrate-resistant acid phosphatase (TRAP) to visualize differentiated cells. The numbers of TRAP-positive osteoclasts were counted.

In another series the test system is osteoblasts. Put plainly: osteoblast protein expression. Format: cell-based. The method, then: The enzyme alkaline phosphatase has been used as an indicator of osteoblast activity, as it is involved in making phosphate available for calcification of bone.
To determine the effects of the compounds on osteoblast activity and protein expression, osteoblasts were treated with medium, DMSO, BMP2, KX1-141, KX2-328, or KX1-329 as indicated above. The protein concentration in cell lysates was determined (μg/10 μl) (FIG. 23).

Series [7] has as its system osteoclasts on bone slices. Put plainly: osteoclast formation on bone slices. Format: cell-based. To be noted: vs untreated control. The method, then: To determine the effects of the compounds on osteoclast formation on bone slices, the bone slices were treated with Rapamycin, KX1-141, KX2-328, or KX1-329. […] The number of osteoclasts on the bone slices were counted.
Bone slices were treated as indicated above. […] The bone slices were then stained with TRAP.

The next series relates to osteoclasts. Put plainly: osteoclast survival. Format: cell-based. Conditions: 48 hours, RANKL and M-CSF, vs untreated control. The protocol: To determine the effect of the compounds on osteoclast survival, osteoclasts were treated with Rapamycin, KX1-141, KX2-328, or KX1-329 for 48 hours in the presence of RANKL and M-CSF. The untreated, control cells were incubated in the presence of RANKL and M-CSF alone. Rapamycin was used as a positive control for the inhibition of osteoclast survival.
As described above, osteoclasts were treated with Rapamycin, KX1-141, KX2-328, or KX1-329 for 48 hours in the presence of RANKL and M-CSF. […] Cells were then stained with TRAP and the number of TRAP-positive osteoclasts were counted.

Series [8] deals with resorption pits on bone slices. Put plainly: resorption pit formation on bone slices. It is filed as cell-based. To be noted: vs untreated control. The protocol: During the resorption of bone, osteoclasts form resorption pits. To determine the effects of the compounds on resorption pit formation on bone slices, the bone slices were treated with Rapamycin, KX1-141, KX2-328, or KX1-329, as described above. […] The number of resorption pits on the bone slices was determined.
Bone slices were treated as indicated above. […] The bone slices were stained with Toluidine Blue to reveal resorption pits, which are indicators of osteoclast-mediated resorption of bone.

The next series relates to HT29 cell line. The series is described as follows: BrdU cell growth inhibition, HT29. Format: cell-based, human. To be noted: Homo sapiens. A digest of the protocol: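 HT29 colon carcinoma cells treated with compounds diluted from 20 mM DMSO stocks into DMEM/10% FBS. Proliferation read as colorimetric BrdU incorporation ELISA; GI calculated relative to untreated cells at time 0 and control cells at day n, with GI50 extrapolated. Net cell loss below time-0 level scored as cytotoxicity.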

Description for H226: Cell proliferation/growth inhibition was assessed using MTT colorimetric assay.
On Day 3, 10 μL MTT (5 mg/mL) was added to each well. Cells were then incubated in the presence of MTT for 4 hours at 37° C., appropriate CO2 conditions. After this incubation period, 90 μL 10% SDS(+HCl) was added to each well to lyse cells and solubilize formazan. Cells were then incubated overnight at 37° C., appropriate CO2 conditions.
The OD570 was measured using microplate reader. Growth inhibition curves and EC50/IC50 was determined using GraphPad Prism 4 statistical software.

Consider `Cc1nc(Nc2ncc(C(=O)Nc3c(C)cccc3Cl)s2)cc(N2CCN(CCO)CC2)n1` [Dasatinib, reference compound], for which the GI50 (commonly the concentration at which growth is held to half of that of the control) in [1] is “Inactive (n = 1)”; in series [2] it was 644 nM; with Ba/F3 (IL-3 induced), “does not inhibit; also recorded: Inactive”; with K562 (CML), below 1 nM. Further, the IC50 – broadly, the concentration that gives 50% inhibition – in the series with H226 was determined as 163 nM; in the series on HuH7 it was 1970 nM. Moreover, the IC80 (in general, the concentration needed for an effect of 80%) in the series with H226 was 7760 nM; in the series with WRL-68, 45600 nM; in the series on PLC/PRF/5 it was above 50000 nM; in the series on Hep 3B it was above 50000 nM; in the series with HuH7 it was 7140 nM. In addition, the “tolerability (reason for dose lowering at day 5)” value in [3] is “weight loss”. Also, the LN metastasis in series [4] was 2/5. Moreover, the Tumor incidence in [4] is listed as 5/6. Further, the “Tumor weight (g) Median” value in series [4] was found to be 0.43 g.
With `O=C(Cc1ccc(-c2ccccc2)cn1)NCc1cccc(F)c1` [KX1-329], in the series on c-Src 3T3 cells (NIH3T3, 100 nM, read-out: c-Src 3T3 Growth, % of Control Mean, n = 3), the activity at 0.1 µM was 96%. The activity at 1 µM with c-Src 3T3 cells (NIH3T3, 1.0 uM, read-out: c-Src 3T3 Growth, % of Control Mean, n = 3) is below 0%. In addition, in the series on c-Src 3T3 cells (NIH3T3, 10 uM, read-out: c-Src 3T3 Growth, % of Control Mean, n = 3), the activity at 10 µM is below 0%. Moreover, the GI50 with c-Src 3T3 cells (c-Src 3T3 (c-Src527F/NIH3T3) cells, read-out: GI50) is 269 nM. For the same compound, the “average dB threshold shifts” value in series [5] was “lower”. In series [6], the “formation of osteoclasts (staining)” value was “inhibited” and the “number of TRAP-positive osteoclasts (formation)” value is given as “reduced”. The “protein concentration in osteoblast cell lysates” value in the series with osteoblasts (0.06 μM and 0.3 μM) is “increased protein concentration”. In the series on osteoblasts ([…] and 7.5 μM), the “protein concentration in osteoblast cell lysates” value is reported as “reduced protein concentration”. In series [7] (FIG. 20A), the “number of osteoclasts on the bone slices” value is “reduced”. In series [7] (FIG. 21A), the “number of TRAP-positive osteoclasts on the bone slices” value is reported as “reduced”. In the series with osteoclasts, the “number of TRAP-positive osteoclasts (survival)” value is listed as “reduced” and the “survival of osteoclasts (staining)” value is reported as “inhibited”. Moreover, the “number of resorption pits on the bone slices” value in series [8] (FIG. 20B) is recorded as “reduced”. Moreover, in [8] (FIG. 21B), the “number of resorption pits on the bone slices (Toluidine Blue)” value is recorded as “reduced”. Moreover, the GI50 with HT29 cell line (HT-29, HT29 (Colon) cells, read-out: GI50) is 338 nM. Also, the activity at 0.05 µM in the series on HT29 cell line (HT-29, 50 nM, read-out: HT-29 Growth, % of Control Mean, n = 3) was 101%. For the same compound, the activity at 0.5 µM with HT29 cell line (HT-29, 500 nM, read-out: HT-29 Growth, % of Control Mean, n = 3) is below 0%. Moreover, the activity at 5 µM with HT29 cell line (HT-29, 5 uM, read-out: HT-29 Growth, % of Control Mean, n = 3) is below 0%.
